Reference: patent US5556847A, “Methods of effecting memory enhancement mediated by steroid sulfatase inhibitors” (Duquesne University of the Holy Ghost, priority 1994, dated 1996)
Structures can show the parent of a compound that is named as a salt.

Key:
[1] = test system: scopolamine-induced amnesia; experiment: passive avoidance paradigm, reversal of scopolamine-induced amnesia (crossover latency); assay type: in vivo, rats
Method: Male rats weighing between 80 and 100 grams were purchased from Hilltop Lab Animals Inc. (Scottdale, Pa.) and housed in hanging wire mesh cages in groups of three with water and rat chow available ad libitum. The room in which the animals were housed was controlled for both temperature and humidity, there was a standard 12 hour, light/dark cycle. To assess memory, the Gemini Avoidance System (San Diego Instruments) was utilized in a standard passive avoidance paradigm. Briefly, the avoidance apparatus consisted of a box (53×53×32 cm) with two compartments connected by an opening with a sliding door. The room in which the rat was placed was brightly lit, while the other room was dark. Initially, the animals were allowed to explore the apparatus and were then removed. During the memory acquisition trial, animals were placed in the light compartment. When an animal entered the dark compartment, the sliding door closed and a mild foot shock (1mA; 1 sec.) was delivered. The rat was then removed from the apparatus and returned to its cage. Twenty-four hours later the rat was again placed in the light side of the apparatus and the time latency to crossing to the dark room recorded. […] The acquisition of memory for the foot shock was assessed as an increased latency period before entering the dark room on the second day. Significant differences in crossover latency were determined by statistical analysis utilizing one-way analysis of a variance with a Dunnett's test post hoc. Significant differences between groups were interpreted as differences in memory acquisition resulting from the various treatments.
To determine the effect of DHEAS on memory, one hour before the acquisition trial […] of ten animals were injected intraperitoneally (IP) with one of the following several doses of DHEAS (5, 10, 20, 30, 50, 70 mg/Kg/ml dissolved saline) or saline. All animals in a given group were administered the same dosage. […] Twenty-four hours later the rats were again placed in the apparatus and the time delay before the animals entered the dark compartment was recorded.
Twenty-four hours later, crossover latency (the time delay before the rats crossed to the dark compartment) for the groups was determined.
(§1) In order to determine whether EMATE alone could enhance memory, four groups of rats (10 animals per group), were injected with EMATE (10 mg/Kg; IP), either four hours before the acquisition trial, or dally for 3, 10 or 15 days before the acquisition trial. Twenty-four hours following the acquisition trial crossover latency was determined. The dally dosage of EMATE was 10 mg/kg which inhibited the sulfatase enzyme for about three to four days.

[2] = test system: steroid sulfatase; experiment: inhibition of steroid sulfatase after dosing; assay type: in vivo
Method: as §1
Sulfatase inhibitor EMATE can effect the memory enhancement of peripherally administered DHEAS, a neurosteroid, by inhibiting the metabolism of DHEAS to DHEA. […] A single dose (10 mg/kg) can inhibit greater than 98% of sulfatase after 24 hours. After 10 days of treatment the sulfatase activity in the whole body (including liver, adrenal gland, ovary, uterus and brain) is inhibited. The administration of EMATE alone can alter the equilibrium between the endogenous sulfated and unsulfated forms of neurosteroids in such a way as to enhance memory.

SMILES | crossover latency (maximum effect) ([1]; DHEAS 20 mg/Kg IP one hour before acquisition trial, scopolamine 1 mg/Kg IP, latency 24 hours later) | reversal of scopolamine-induced amnesia ([1]; DHEAS 5-70 mg/Kg IP one hour before acquisition trial, scopolamine 1 mg/Kg IP 30 minutes before, bell shaped dose response curve) | reversal of scopolamine-induced amnesia ([1]; EMATE alone 10 mg/Kg IP daily for 10 and 15 days before acquisition trial) | crossover latency ([1]; EMATE alone 10 mg/Kg IP daily for 10 days before acquisition trial) | crossover latency ([1]; EMATE alone 10 mg/Kg IP daily for 15 days before acquisition trial) | effect on crossover latency ([1]; EMATE alone, single dose 10 mg/Kg IP four hours before acquisition trial) | sulfatase activity in the whole body (including liver, adrenal gland, ovary, uterus and brain) ([2]; after 10 days of treatment) | duration of inhibition of the sulfatase enzyme ([2]; dosage 10 mg/kg) | kind of steroid sulfatase inhibition ([2]; in vivo) | inhibition of sulfatase ([2]; single dose 10 mg/kg, after 24 hours)
C[C@]12CC[C@H](OS(=O)(=O)O)CC1=CC[C@@H]1[C@@H]2CC[C@]2(C)C(=O)CC[C@@H]12 [DHEAS, dehydroepiandrosterone sulfate, reference compound] | 299.4 ± 83.5 s | significant (p≤0.05), reversal of scopolamine-induced amnesia | – | – | – | – | – | – | – | –
C[C@]12CC[C@@H]3c4ccc(OS(N)(=O)=O)cc4CC[C@H]3[C@@H]1CCC2=O [EMATE, estrone - 3-sulfamate] | – | – | significant (p≤0.05) reversal of scopolamine-induced amnesia | 263.1 ± 69.7 s | 297.0 ± 88.7 s | failed to increase crossover latency | inhibited | about three to four | potent irreversible inhibitor | greater than 98%
